Data: patent US10828301B2, “2,4-pyrimidinediamine compounds and their uses” (Rigel Pharmaceuticals, Inc, priority 2002, dated 2020)

What was measured:
[1] = test system: cultured human mast cells (CHMC); assay: CHMC low cell density ionomycin activation: tryptase assay; assay type: cell-based; details: read-out: CHMC Ionomycin Tryptase
[2] = test system: cultured human mast cells (CHMC); assay: CHMC low cell density IgE activation: tryptase and LTC4 assays; assay type: cell-based; details: read-out: CHMC anti-IgE Tryptase
How it was run: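 Degranulation measured after 30 min anti-IgE challenge at 37° C of CHMC plated at 1000-1500 cells/well following 1 h preincubation. Readouts: LTC4 by ELISA on donor-specific diluted supernatants, and tryptase activity from a 30 min room-temperature substrate reaction.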

[3] = Homo sapiens, Mast cell, Low Density CHMC, ionomycin activation, tryptase readout
[4] = Homo sapiens, Mast cell, Low Density CHMC, anti-IgE activation, tryptase readout
[5] = Low Density CHMC, ionomycin activation, tryptase readout
[6] = Low Density CHMC, anti-IgE activation, tryptase readout

IC50 [1, 3] | IC50 [2, 4] | Compound | further results
> 10 µM | 1.1 µM | Fc1cc(F)cc(Nc2ncc(F)c(Nc3ccc4c(c3)OCCO4)n2)c1 [Compound R926898, N4-(3,4-Ethylenedioxyphenyl)-5-fluoro-N2-(3,5-difluorophenyl)-2,4-pyrimidinediamine] | 
> 10 µM | 0.049 µM | COC(=O)C1Cc2cc(Nc3ncc(F)c(Nc4ccc(OC(F)(F)F)c(Cl)c4)n3)ccc2O1 (centres unmarked) [Compound R926953, N4-(3-Chloro-4-trifluoromethoxyphenyl)-5-fluoro-N2-[2,3-dihydro-2-(methoxycarbonyl)benzofuran-5-yl]-2,4-pyrimidinediamine] | 
> 10 µM | 0.284 µM | CNC(=O)C1Cc2cc(Nc3ncc(F)c(Nc4ccc(OC(F)(F)F)c(Cl)c4)n3)ccc2O1 (centres unmarked) [Compound R926954, N4-(3-Chloro-4-trifluoromethoxyphenyl)-5-fluoro-N2-[2,3-dihydro-2-[(N-methylamino)carbonyl]benzofuran-5-yl]-2,4-pyrimidinediamine] | 
> 10 µM | 0.36 µM | CNC(=O)C1Cc2cc(Nc3ncc(F)c(Nc4ccc(OC)c(Cl)c4)n3)ccc2O1 (centres unmarked) [Compound R926955, N4-(3-Chloro-4-methoxyphenyl)-5-fluoro-N2-[2,3-dihydro-2-[(N-methylamino)carbonyl]benzofuran-5-yl]-2,4-pyrimidinediamine] | 
> 10 µM | 1.32 µM | Oc1cccc(Nc2ncc(F)c(Nc3ccc(Cl)cn3)n2)c1 [Compound R927020, N4-(5-Chloropyridin-2-yl)-5-fluoro-N2-(3-hydroxyphenyl)-2,4-pyrimidinediamine] | 
> 10 µM | > 10 µM | COC(=O)c1cc2cc(Nc3ncc(F)c(Nc4ccc(Cl)c(Cl)c4)n3)ccc2o1 [Compound R927027, N4-(3,4-Dichlorophenyl)-5-fluoro-N2-(2-methoxycarbonylbenzofuran-5-yl)-2,4-pyrimidinediamine] | 
9.8 µM | 10 µM | Fc1cnc(NC(c2ccc(Cl)cc2)c2ccc(Cl)cc2)nc1NC(c1ccc(Cl)cc1)c1ccc(Cl)cc1 [Compound R935006, N2,N4-Bis[di-(4-chlorophenyl)methyl]-5-fluoro-2,4-pyrimidinediamine] | 
> 10 µM | 8.8 µM | Oc1cccc(Nc2ncc(F)c(NC(c3ccc(Cl)cc3)c3ccc(Cl)cc3)n2)c1 [Compound R935019, 5-Fluoro-N2-(3-hydroxyphenyl)-N4-[di-(4-chlorophenyl)methyl]-2,4-pyrimidinediamine] | 
> 10 µM | 1.04 µM | COC(=O)c1cc(Nc2nc(Nc3cccc(O)c3)ncc2Br)cn1C [Compound R935025, 5-Bromo-N2-(3-hydroxyphenyl)-N4-(N-methyl-2-carbomethoxypyrrol-4-yl)-2,4-pyrimidinediamine] | 
> 10 µM | 2.83 µM | Nc1nc(Nc2cccc(O)c2)ncc1Br [Compound R935029, 4-Amino-5-bromo-N2-(3-hydroxyphenyl)-2-pyrimidineamine] | 

Further lines, the compound ahead of its results:

Compound | IC50 [1, 3] | IC50 [2, 4] | further results
COc1ccc(C)c(Nc2ncc(F)c(Nc3ccc4c(c3)OCCO4)n2)c1 [Compound R926896, N4-(3,4-Ethylenedioxyphenyl)-5-fluoro-N2-(5-methoxy-2-methylphenyl)-2,4-pyrimidinediamine] | > 10 µM | 1.62 µM | 
Cc1ccc(F)c(Nc2ncc(F)c(Nc3ccc4c(c3)OCCO4)n2)c1 [Compound R926897, N4-(3,4-Ethylenedioxyphenyl)-5-fluoro-N2-(2-fluoro-5-methylphenyl)-2,4-pyrimidinediamine] | > 10 µM | 1.73 µM | 
Fc1cnc(Nc2ccc(SC(F)(F)F)cc2)nc1Nc1ccc2c(c1)OCCO2 [Compound R926899, N4-(3,4-Ethylenedioxyphenyl)-5-fluoro-N2-(4-trifluoromethylthiophenyl)-2,4-pyrimidinediamine] | > 10 µM | 1.1 µM | 
CCNC(=O)Oc1cccc(Nc2ncc(F)c(Nc3cccc(O)c3)n2)c1 [Compound R926928, N2-[3-[(N-Ethylamino)carbonyloxy]phenyl]-5-fluoro-N4-(3-hydroxyphenyl)-2,4-pyrimidinediamine] |  |  | IC50 ([1]; Homo sapiens, Mast cell): > 10 µM; IC50 ([2]; Homo sapiens, Mast cell): 0.575 µM
Oc1cccc(Nc2ncc(F)c(Nc3ccc4[nH]ccc4c3)n2)c1 [Compound R926932, 5-Fluoro-N2-(3-hydroxyphenyl)-N4-[(1H)-indol-5-yl]-2,4-pyrimidinediamine] | > 10 µM | 0.31 µM | 
CNC(=O)COc1cccc(Nc2ncc(F)c(Nc3ccc4c(c3)C=CCC4)n2)c1 [Compound R926944, 5-Fluoro-N4-(3,4-dihydronaphthalen-7-yl)-N2-[3-[(N-methylamino)carbonylmethyleneoxy]phenyl]-2,4-pyrimidinediamine] |  |  | IC50 [1, 5]: 99 µM; IC50 [2, 6]: 0.225 µM
COc1ccc(Nc2nc(Nc3cccc(O)c3)ncc2F)cc1Cl [Compound R926945, N4-(3-Chloro-4-methoxyphenyl)-5-fluoro-N2-(3-hydroxyphenyl)-2,4-pyrimidinediamine] | > 10 µM | 0.457 µM | 
CNC(=O)COc1cccc(Nc2ncc(F)c(Nc3ccc4c(c3)C(=NO)CCC4)n2)c1 [Compound R926948, 5-Fluoro-N4-(1,2,3,4-tetrahydro-1-hydroxyiminonaphthalen-7-yl)-N2-[3-[(N-methylamino)carbonylmethyleneoxy]phenyl]-2,4-pyrimidinediamine] |  |  | IC50 [1, 5]: > 10 µM; IC50 [2, 6]: 0.246 µM
COC(=O)C1Cc2cc(Nc3ncc(F)c(Nc4ccc(OC)c(Cl)c4)n3)ccc2O1 (centres unmarked) [Compound R926951, N4-(3-Chloro-4-methoxyphenyl)-5-fluoro-N2-[2,3-dihydro-2-(methoxycarbonyl)benzofuran-5-yl]-2,4-pyrimidinediamine] | > 10 µM | 0.183 µM | 
CNC(=O)COc1cccc(Nc2ncc(F)c(Nc3ccc(OCCO)nc3)n2)c1 [Compound R927023, 5-Fluoro-N4-[2-(2-hydroxyethyleneoxy)pyridin-5-yl]-N2-[3-(N-methylamino)carbonylmethyleneoxyphenyl]-2,4-pyrimidinediamine] |  |  | IC50 [1, 5]: > 10 µM; IC50 [2, 6]: 0.918 µM
COC(=O)c1cc2cc(Nc3ncc(F)c(Nc4ccc(Cl)cc4)n3)ccc2o1 [Compound R927026, N4-(4-Chlorophenyl)-5-fluoro-N2-(2-methoxycarbonylbenzofuran-5-yl)-2,4-pyrimidinediamine] | > 10 µM | > 10 µM | 
COc1ccc(-c2ccccc2)cc1Nc1ncc(C)c(Nc2cc(-c3ccccc3)ccc2OC)n1 [Compound R935000, N2,N4-Bis(2-methoxy-5-phenylphenyl)-5-methyl-2,4-pyrimidinediamine] | > 10 µM | > 10 µM | 
COc1ccc(C(Nc2ncc(F)c(NC(c3ccc(OC)cc3)c3ccc(OC)cc3)n2)c2ccc(OC)cc2)cc1 [Compound R935004, N2,N4-Bis[[di-(4-methoxyphenyl)]methyl]-5-fluoro-2,4-pyrimidinediamine] | > 10 µM | > 10 µM | 
Fc1cnc(NC(c2ccccc2)c2ccccc2)nc1NC(c1ccccc1)c1ccccc1 [Compound R935005, N2,N4-Bis(diphenylmethyl)-5-fluoro-2,4-pyrimidinediamine] | > 10 µM | > 10 µM | 
Oc1cccc(Nc2ncc(F)c(NC3c4ccccc4-c4ccccc43)n2)c1 [Compound R935020, N4-(Fluoren-9-yl)-5-fluoro-N2-(3-hydroxyphenyl)-2,4-pyrimidinediamine] | > 10 µM | > 10 µM | 
